Our source for the T/C values is PubChem BioAssay AID328 (DTP/NCI, 2004).

Values joined by “and” are separate entries in the source; they are usually repeats but may differ in a detail not shown here. Identical values can stand only once. Toxic doses and inconclusive results are not listed. Residues, ends and D or L forms follow the SMILES beside them. *: point of attachment. Cbz = O=C(OCc1ccccc1)*; OBn = c1ccc(CO*)cc1; Bn = c1ccc(C*)cc1

The assay relates to BDF1 mice, P388 leukemia ip, median survival T/C. The assay is described as follows: NCI In Vivo Anticancer Drug Screen. Data for tumor model P388 Leukemia (intraperitoneal) in B6D2F1 (BDF1) mice. The note with it: endpoint: median survival time, higher = longer survival. The method in brief: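 Each value expresses how treatment altered survival: treated-mouse outcome over vehicle-mouse outcome, both groups bearing the transplanted tumour.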

The mark [1] stands for this setting: dose: 50.0 mg/kg/injection, schedule: Q01DX009 (ip), vehicle: saline with Tween-80.
The mark [2] stands for this setting: dose: 100.0 mg/kg/injection, schedule: Q01DX009 (ip), vehicle: saline with Tween-80.
Where [3] appears, read: dose: 200.0 mg/kg/injection, schedule: Q01DX009 (ip), vehicle: saline with Tween-80.
Setting [4] is: dose: 100.0 mg/kg/injection, schedule: Q01DX001 (ip), vehicle: saline with Tween-80.
[5] abbreviates: dose: 200.0 mg/kg/injection, schedule: Q01DX001 (ip), vehicle: saline with Tween-80.

On to `COc1c2c([n+](C)c3c(OC)cccc13)OC(C(C)C)C2` (stereo not drawn), for which the T/C is 109 % of control (dose: 0.03 mg/kg/injection, schedule: Q01DX009 (ip), vehicle: saline); 104 % of control (dose: 0.06 mg/kg/injection, schedule: Q01DX009 (ip), vehicle: saline); 109 % of control (dose: 0.12 mg/kg/injection, schedule: Q01DX009 (ip), vehicle: saline); 100 % of control (dose: 0.18 mg/kg/injection, schedule: Q04DX003 (ip), vehicle: saline); 104 % of control (dose: 0.25 mg/kg/injection, schedule: Q01DX009 (ip), vehicle: Klucel (hydroxypropylcellulose) (HPC)); 104 % of control and 120 % of control (dose: 0.25 mg/kg/injection, schedule: Q01DX009 (ip), vehicle: saline). The T/C runs as follows: (dose: 0.37 mg/kg/injection, schedule: Q04DX003 (ip), vehicle: saline) 118 % of control; (dose: 0.5 mg/kg/injection, schedule: Q01DX009 (ip), vehicle: Klucel (hydroxypropylcellulose) (HPC)) 104 % of control; (dose: 0.5 mg/kg/injection, schedule: Q01DX009 (ip), vehicle: saline) 112 % of control; (dose: 0.75 mg/kg/injection, schedule: Q04DX003 (ip), vehicle: saline) 104 % of control; (dose: 1.0 mg/kg/injection, schedule: Q01DX009 (ip), vehicle: Klucel (hydroxypropylcellulose) (HPC)) 118 % of control; (dose: 1.1 mg/kg/injection, schedule: Q04DX003 (ip), vehicle: saline) 90 % of control. Besides, the T/C is, setting by setting: (dose: 1.7 mg/kg/injection, schedule: Q04DX003 (ip), vehicle: saline) 100 % of control; (dose: 2.5 mg/kg/injection, schedule: Q04DX003 (ip), vehicle: saline) 90 % of control; (dose: 3.6 mg/kg/injection, schedule: Q04DX003 (ip), vehicle: saline) 86 % of control.

Consider `C=C1C(=O)OC2CC(C)C3C4OC4C(O)C3(C)C(O)C12` (stereo not drawn), for which the T/C was 100 % of control (dose: 6.25 mg/kg/injection, schedule: Q01DX009 (ip), vehicle: saline); 111 % of control (dose: 9.38 mg/kg/injection, schedule: Q01DX009 (ip), vehicle: saline); 100 % of control (dose: 12.5 mg/kg/injection, schedule: Q01DX009 (ip), vehicle: saline); 101 % of control (dose: 16.5 mg/kg/injection, schedule: Q01DX009 (ip), vehicle: saline); 120 % of control (dose: 18.75 mg/kg/injection, schedule: Q01DX009 (ip), vehicle: saline); 104 % of control and 108 % of control (dose: 25.0 mg/kg/injection, schedule: Q01DX009 (ip), vehicle: saline). Besides, the T/C was 112 % of control (dose: 37.5 mg/kg/injection, schedule: Q01DX009 (ip), vehicle: saline) and 110 % of control (dose: 56.25 mg/kg/injection, schedule: Q01DX009 (ip), vehicle: saline).

Consider `Cc1nc(Cl)c(C#N)c(C)c1Cl`, for which the T/C was 97 % of control (dose: 50.0 mg/kg/injection, schedule: Q01DX005 (ip), vehicle: saline with Tween-80); 92 % of control (dose: 100.0 mg/kg/injection, schedule: Q01DX005 (ip), vehicle: saline with Tween-80); 94 % of control (dose: 200.0 mg/kg/injection, schedule: Q01DX005 (ip), vehicle: saline with Tween-80).

As for `C=C(C)C(=O)NCC(=O)NC(Cc1ccccc1)C(=O)Oc1ccc([N+](=O)[O-])cc1` (stereo not drawn), the T/C is, setting by setting: (dose: 25.0 mg/kg/injection, schedule: Q01DX009 (ip), vehicle: saline with Tween-80) 97 % of control; under setting [1], 101 % of control; under setting [2], 99 % of control.

With `NC(N)=N/N=C\c1c2ccccc2cc2ccccc12`, the T/C runs as follows: (dose: 3.13 mg/kg/injection, schedule: Q01DX009 (ip), vehicle: other) 155 % of control; (dose: 6.25 mg/kg/injection, schedule: Q01DX009 (ip), vehicle: other) 155 % of control; (dose: 12.5 mg/kg/injection, schedule: Q01DX009 (ip), vehicle: other) 157 % of control.

Regarding `OC1(C2(O)CCCC2)CCCC1`, the T/C is 109 % of control under setting [2]; 95 % of control under setting [3]; 100 % of control (dose: 400.0 mg/kg/injection, schedule: Q01DX009 (ip), vehicle: saline with Tween-80).

As for `CCOC(=O)/C=C(/C)SC1=CC(=O)c2ccccc2C1=O`, the T/C (dose: 1.56 mg/kg/injection, schedule: Q01DX009 (ip), vehicle: saline with Tween-80) is 107 % of control and 113 % of control; the T/C (dose: 3.13 mg/kg/injection, schedule: Q01DX009 (ip), vehicle: saline with Tween-80) was 106 % of control and 107 % of control; the T/C (dose: 6.25 mg/kg/injection, schedule: Q01DX009 (ip), vehicle: saline with Tween-80) is 104 % of control and 117 % of control; the T/C (dose: 12.5 mg/kg/injection, schedule: Q01DX009 (ip), vehicle: saline with Tween-80) is 107 % of control and 115 % of control.

As for `CCOC(=O)C1=C(N)CC(c2ccc(C#N)cc2)NC1c1cccc(OC)c1O` (stereo not drawn), the T/C under setting [4] was 105 % of control and the T/C under setting [5] was 111 % of control.

Consider `O=[N+]([O-])/C=C/c1ccc([N+](=O)[O-])cc1Cl`, for which the T/C is, setting by setting: (dose: 12.5 mg/kg/injection, schedule: Q01DX009 (ip), vehicle: Klucel (hydroxypropylcellulose) (HPC)) 109 % of control; (dose: 25.0 mg/kg/injection, schedule: Q01DX009 (ip), vehicle: Klucel (hydroxypropylcellulose) (HPC)) 109 % of control; (dose: 25.0 mg/kg/injection, schedule: Q04DX003 (ip), vehicle: Klucel (hydroxypropylcellulose) (HPC)) 115 % of control; (dose: 50.0 mg/kg/injection, schedule: Q01DX009 (ip), vehicle: Klucel (hydroxypropylcellulose) (HPC)) 104 % of control; (dose: 50.0 mg/kg/injection, schedule: Q04DX003 (ip), vehicle: Klucel (hydroxypropylcellulose) (HPC)) 107 % of control; (dose: 100.0 mg/kg/injection, schedule: Q04DX003 (ip), vehicle: Klucel (hydroxypropylcellulose) (HPC)) 88 % of control.

In the case of `CC(C)CC(NC(=O)C(CSCc1ccccc1)NC(=O)OCc1ccccc1)C(=O)OCc1ccccc1` (stereo not drawn) (Cbz-Cys(Bn)-Leu-OBn; configuration not given here), the T/C is 104 % of control (dose: 100.0 mg/kg/injection, schedule: Q04DX003 (ip), vehicle: gum acacia); 100 % of control (dose: 200.0 mg/kg/injection, schedule: Q04DX003 (ip), vehicle: gum acacia); 100 % of control (dose: 400.0 mg/kg/injection, schedule: Q04DX003 (ip), vehicle: gum acacia).

Take `COC(=O)C(C#N)=N/C=C/C=C1/N(C)c2ccccc2C1(C)C`: the T/C under setting [1] is 96 % of control, the T/C under setting [2] was 92 % of control and the T/C under setting [3] was 99 % of control.

`CCCCOC(=O)c1ccc(NC(=O)NCCC)cc1`: the T/C (dose: 100.0 mg/kg/injection, schedule: Q04DX003 (ip), vehicle: saline with Tween-80) is 104 % of control; the T/C (dose: 200.0 mg/kg/injection, schedule: Q04DX003 (ip), vehicle: saline with Tween-80) is 100 % of control; the T/C (dose: 400.0 mg/kg/injection, schedule: Q04DX003 (ip), vehicle: saline with Tween-80) was 109 % of control.

With `Cc1cc(=O)c2cc(N)ccc2[nH]1`, the T/C is 110 % of control (dose: 25.0 mg/kg/injection, schedule: Q01DX009 (ip), vehicle: water); 94 % of control (dose: 50.0 mg/kg/injection, schedule: Q01DX009 (ip), vehicle: water); 102 % of control (dose: 50.0 mg/kg/injection, schedule: Q04DX003 (ip), vehicle: water); 91 % of control (dose: 100.0 mg/kg/injection, schedule: Q01DX009 (ip), vehicle: water); 106 % of control (dose: 100.0 mg/kg/injection, schedule: Q04DX003 (ip), vehicle: water); 119 % of control (dose: 200.0 mg/kg/injection, schedule: Q01DX009 (ip), vehicle: water). Also, the T/C was 113 % of control (dose: 200.0 mg/kg/injection, schedule: Q04DX003 (ip), vehicle: water); 92 % of control (dose: 400.0 mg/kg/injection, schedule: Q01DX009 (ip), vehicle: water); 103 % of control (dose: 400.0 mg/kg/injection, schedule: Q04DX003 (ip), vehicle: water).

For `CC(C)(C)c1cc(Br)c(N)c(C(O)(C(F)(F)F)C(F)(F)F)c1`, the T/C by setting is: under setting [4], 105 % of control; under setting [5], 109 % of control; (dose: 400.0 mg/kg/injection, schedule: Q01DX001 (ip), vehicle: saline with Tween-80) 111 % of control.
